Results: US7074925B1, “N-substituted derivatives of 5-oxyiminobarbituric acid” (priority 1998, dated 2006)
Marks after values point to notes of the source that are not given here.

Experiments:
[1] = test system: Human's platelet aggregation; assay: Antiaggregational properties, ADP-induced platelet aggregation; format: cell-based; conditions: Homo sapiens, Platelet, ADP 2.5 μmol/l
From the text: Human's platelet aggregation was investigated in plasma of healthy 50±3 years donors that was enriched by thrombocytes, by means of aggregometer FRM-1. […] Magnitude of a maximum non-reversible platelet aggregation in the control samples (solvent) was adopted as 100%, and that in tested samples was counted as the percentage compared to the control.

[2] = test system: Herpes virus of the type I (HSV-I/Leningrad/248/88); assay: Effect on Herpes virus, cytopathogenic action on Vero cells; format: cell-based, Herpes Simplex virus; conditions: for Quantity of the unchanged cells (number of cells in 100 visual fields): Vero cells, 36 hours, cell control 10000; for percentage of protection of cells from virus: compared to the control of cell culture
Method: An antiviral activity was determined with respect to Herpes virus of the type I (HSV-I/Leningrad/248/88) by means of commonly accepted method. Viruses were grown on a continuous culture of Vero cells that have been received from the Bank of Cell Cultures of the Institute of Cytology of the Russian Academy of Science.
A virus in a final concentration of […] and the claimed compounds dissolved in DMSO in final concentrations of 100, 10 and 1 mg/l were added to cells that were grown on the RPMI-1640 medium with 10% fetal calf serum and placed into wells of the 96-well plate. 5 separate wells were used for each of tested concentrations of an agent. The plate was incubated during 60 minutes at 38° C. in a CO2-incubator. After the incubation, the virus was removed and then a fresh medium containing claimed compounds in used concentrations was again introduced.
Results were evaluated basing on presence of cytopathogenic action on the cells after 36 hours of incubation at 38° C. in the CO2-incubator.
The next controls were used in the experiment: • 1. Control of cell culture (capability to grow properly) • 2. Control of the virus (evaluation of capability for reproduction) • 3. Control of an antiviral activity of an antiviral drug Acyclovir • 4. Control of compounds (toxicity of compounds) • 5. Control of a solvent (DMSO) for toxicity.
To estimate a cytopathic action of the virus, a quantity of the unchanged cells was calculated in 100 visual fields formed by a special net of an eyepiece of the inverted microscope.

[3] = test system: C.trachomatis D323; assay: Action on Chlamydia trachomatis in cell culture; format: cell-based; conditions: 100 mg/l; for Number of unchanged cells: 48 hours, counted in 100 visual fields, cell control 8.000, infected cells 6.000
Method: The antimicrobial activity of the claimed compounds was studied relative to C.trachomatis […], which is a standard strain from the collection of the chair of microbiology of St. Petersburg State Pavlov Medical University. […] Cell cultures McCoy and L929 obtained from the Institute of Cytology of RAS were used in this work. Cells were grown in flasks made of neutral glass in the medium RPMI-1640 with the addition of 10% of fetal calf serum. The test was performed in glass (non-toxic) flat-bottom flasks with cover glasses. The cells were introduced into the medium in the final concentration of […]. […] Simultaneously, tested compounds in a final concentration of 100 mg/l were added to the cells. The sample was centrifuged at 2400 G during 60 minutes at room temperature and incubated at 37° C. for 2 hours. […] The samples were doubled using the medium without cycloheximide so as to exclude its effect on the investigated compounds. The samples were incubated in a CO2-incubator for 48 hours. […] The effect of the action of substance was determined by analysis of the monolayer state and number of cells with CPI when compared with the control (cell culture infected with C.trachomatis […]); in doing so, the number of unchanged cells, that were counted in 100 visual fields obtained using the special net of the microscope eyepiece, was taken into consideration. […] Control of cell culture: morphology of cells and state of monolayer correspond to the given type of the cells; control of chlamydia growth in the cell culture: presence of CPI in the monolayer; control of action of standard antimicrobial agent: reduction of number of CPI in the monolayer as compared to the previous control; control of toxicity of the claimed compounds: toxicity is absent; control of action of solvents: toxic action on cells is absent.

[4] = test system: primary culture of human lymphocytes (IFN-α production); assay: Interferon-inducing activity in primary culture of human lymphocytes; format: cell-based
Method: Interferon synthesis induction caused by the claimed compounds was conducted on a primary culture of human lymphocytes (it is these cells in a human organism that are the main producers of interferons). To obtain lymphocyte culture, fresh blood (within 12 hours after sampling) from healthy donors (not of group II) was used. To separate lymphocytes, heparinized blood obtained from healthy donor was centrifuged in a density gradient of ficoll-verografin of […] in order to extract a fraction of immunocompetent cells. This fraction was selected and diluted with the nutrient medium RPMI-1640, containing 5% of fetal calf serum, 0.3 mg/ml of L-glutamin, 100 un/ml of penicillin, and […] of streptomycin. The concentration of lymphocytes was considered after dying them with methylene blue and calculation of cell number in Goryaev chamber. Initial solutions of the claimed compounds were diluted with the nutrient medium RPMI-1640 so that the final concentrations of the compounds, which were obtained after introduction of lymphocyte suspension, constituted the raw: 100 μg/ml, 10 μg/ml, 1 μg/ml. The final concentration of lymphocytes in the induction mixture was 3×10^6 cell/ml.
In parallels to the test samples the following controls were done: • 1). Control of spontaneous production of interferons (IFN) by lymphocytes. • 2). […] Control of spontaneous production of interferons in presence of DMSO taken in an amount corresponding to the test samples.
Control and test samples were incubated for 24 hours at the temperature of 37° C. After incubation, the samples were centrifuged at 2,000 G to deposit cell elements, and IFN-containing supernatant was separate out of samples; then the supernatant was analyzed for the quantitative content of IFN. Cell deposition was resuspended in the previous volume of nutrient medium, coloured with vital dye trypan blue, and cell number was counted in the Goryaev chamber (as described above) to determine cytotoxic action of the compounds. The quantitative determination of content of IFN in control and test samples was conducted using the immunoenzyme test system Pro Con IF2 Plus, that is intended for determination of IFN-α, which is produced by TOO “Protein contour”. The solid-phase immunoenzyme method, utilizing horse radish peroxidase as an indicator enzyme, was used to determine the quantity of interferon in the samples. Activity of the bonded peroxidase was measured using an automatic photometer for microplates with a microprocessor at the wavelength of 450 nm.
Based on the obtained results, a calibrating curve was formed, which allows to obtain data expressed in international units (IU) of activity, using the microprocessor of the automatic photometer. The results of the analysis are expressed in IU of activity of IFN per ml in the given induction system, which contains 3×10^4 lymphocyte/ml. Each test and control point was investigated in four parallels.
Controls of immunoenzyme reaction: • 1. Control of DMSO with a nutrient medium. • 2. Control of system components (according to an instruction).
The obtained data were undergone a statistical analysis using t-criterion, and calculation of the confident interval of probability at p=0.05 was carried out. Coincidence of results in the parallel tests was analyzed.

[5] = Antiulcerous action, water immersion stress with immobilization; format: in vivo, rats; conditions: 20 mg/kg perorally
Method: Antiulcerous activity of substances was tested on a model of experimental water immersion stress with immobilization. […] After that, gastric mucous membrane was investigated, number and sizes of ulcers were counted, ulceration index was determined (an average sum of ulcer lengths per one animal in a group).

[6] = Hypoglycemic activity after glucose load; format: in vivo, mice; conditions: Glibenclamide I mg/kg
Method: Test substance (100 mg/kg) was perorally administrated to fasted mice, and, immediately after that, solution of glucose (1000 mg/kg) was administrated subcutaneously. Glucose content in blood was determined in a hour by the orthotoluidine method. Reducing of glucose level by more than 20% relative to control animals indicated hypoglycemic properties. Glibenclamide (I mg/kg) was utilized as a reference agent.

Row | SMILES | Quantity of the unchanged cells (number of cells in 100 visual fields) ([2]; compound 100 μg/ml) | percentage of protection of cells from virus ([2]; compound 100 μg/ml) | percentage of cell protection from infection [3] | Number of unchanged cells [3] | Content of IFN in induction mixture after 24-hour incubation ([4]; substance 1 mg/l) [IU/3 × 10^4 lymph./ml] | Content of IFN in induction mixture after 24-hour incubation ([4]; substance 10 mg/l) [IU/3 × 10^4 lymph./ml] | Content of IFN in induction mixture after 24-hour incubation ([4]; substance 100 mg/l) [IU/3 × 10^4 lymph./ml] | further results
1 | CC(=O)Oc1ccccc1C(=O)O [Aspirin, aspirin, reference compound] | – | – | – | – | – | – | – | inhibition at 9 µg/mL ([1]; 9 μg/ml): 100%
2 | COc1ccc(CN2C(=O)NC(=O)C(=NO)C2=O)cc1 [XIII] | 4500 | (45%) | (50%) | 7.000 | – | – | – | –
3 | Nc1ncnc2c1ncn2[C@@H]1O[C@H](CO)[C@@H](O)[C@H]1O [Adenosine, reference compound] | – | – | – | – | – | – | – | inhibition at 5 µg/mL ([1]; 5 μg/ml): 100%
4 | O=C1NC(=O)N(CCc2ccc(F)cc2)C(=O)C1=NO [XV] | 4000 | (40%) | – | – | – | – | – | –
5 | Cc1ccccc1N1C(=O)NC(=O)C(=NO)C1=O [XX] | 3500 | (35%) | – | – | – | – | – | –
6 | O=C1NC(=O)N(Cc2ccccc2)C(=O)C1=NO [XI] | 3500 | (35%) | – | – | 32.8 ± 1.0 | 53.5 ± 1.2 | 60 ± 1.8 | –
7 | O=C1NC(=O)N(CCC2=CCCCC2)C(=O)C1=NO [X] | – | – | – | – | 8.6 ± 1.0 | 11.0 ± 1.2 | 30 ± 1.8 | –
8 | CC(Cc1ccccc1)N1C(=O)NC(=O)C(=NO)C1=O (stereo not drawn) [XVII] | – | – | (35%) | 6.700 | 6.2 ± 0.5 | 13.0 ± 2.5 | 19.2 ± 1.2 | –
9 | C=CCN1C(=O)C(=NO)C(=O)NC1=S [XXXIX] | – | – | (65%) | 7.300 | – | – | – | –
10 | Nc1nc2c(ncn2COCCO)c(=O)[nH]1 [Acyclovir, reference compound] | – | – | – | – | – | – | – | Quantity of the unchanged cells (number of cells in 100 visual fields) ([2]; Acyclovir): 8000*; percentage of protection of cells from virus ([2]; Acyclovir): (80%)**
11 | CCOc1ccc(N2C(=O)NC(=O)C(=NO)C2=O)cc1 [XXX] | 3000 | (30%) | (35%) | 6.700 | – | – | – | –
12 | O=C1NC(=O)N(c2cccc3ccccc23)C(=O)C1=NO [XXXIV] | – | – | (35%) | 6.700 | – | – | – | –
13 | O=C1NC(=O)N(Cc2ccc(F)cc2)C(=O)C1=NO [XII] | 4000 | (40%) | (30%) | 6.600 | – | – | – | –
14 | CCN1C(=O)C(=NO)C(=O)NC1=S [XXXVI] | – | – | – | – | 5.2 ± 1.0 | 6.8 ± 1.5 | 26.0 ± 1.4 | –
15 | O=C1NC(=S)N(c2ccc(Cl)cc2)C(=O)C1=NO [XLVI] | – | – | – | – | 6.6 ± 0.8 | 24.4 ± 1.4 | 52.1 ± 1.8 | –
16 | CC(C)(C)N1C(=O)NC(=O)C(=NO)C1=O [III] | 5000 | (50%) | (50%) | 7.000 | 4.2 ± 0.8 | 23.5 ± 1.2 | 65 ± 1.2 | –
17 | CN(C)CCCN1c2ccccc2Sc2ccc(Cl)cc21 [Chlorpromazine, reference compound] | – | – | – | – | – | – | – | % of animals with ulcers ([5]; rats, 4 hours stress, control 100): 33%; % of reducing number of ulcers ([5]; versus control): −96%; % of reducing ulceration index ([5]; versus control): −97%; Number of lesions ([5]; control 8.3 ± 2.5): 0.3 ± 0.3; ulceration index ([5]; control 10.5 ± 5.7): 0.3 ± 0.3
18 | COc1ccc(Cl)cc1C(=O)NCCc1ccc(S(=O)(=O)NC(=O)NC2CCCCC2)cc1 [Glibenclamide, reference compound] | – | – | – | – | – | – | – | % change of glucose relative to glucose control [6]: −40%; Glucose in blood ([6]; glucose 1000 mg/kg s.c., after one hour): 4.95 ± 0.31 mmol/L
